Here are results for 57 molecules from patent US8299070B2, “Indole compounds and pharmaceutical use thereof” (Japan Tobacco Inc., priority 2009, dated 2012).

Each structure is given as a SMILES string.

Usually IC50 stands for the point on the concentration scale where inhibition reaches its midpoint.

This test concerns the target T1, hITK enzyme (FLAG-tagged full-length hITK) (Homo sapiens, UniProt Q08881).
T1 construct: strongly expressing FLAG-tagged full-length hITK in Sf9 cells; FLAG; made in house; host or cells: Sf9 insect cells (ITK); Escherichia coli (GST-SLP76 substrate)
T1 sequence (Q08881 1-620): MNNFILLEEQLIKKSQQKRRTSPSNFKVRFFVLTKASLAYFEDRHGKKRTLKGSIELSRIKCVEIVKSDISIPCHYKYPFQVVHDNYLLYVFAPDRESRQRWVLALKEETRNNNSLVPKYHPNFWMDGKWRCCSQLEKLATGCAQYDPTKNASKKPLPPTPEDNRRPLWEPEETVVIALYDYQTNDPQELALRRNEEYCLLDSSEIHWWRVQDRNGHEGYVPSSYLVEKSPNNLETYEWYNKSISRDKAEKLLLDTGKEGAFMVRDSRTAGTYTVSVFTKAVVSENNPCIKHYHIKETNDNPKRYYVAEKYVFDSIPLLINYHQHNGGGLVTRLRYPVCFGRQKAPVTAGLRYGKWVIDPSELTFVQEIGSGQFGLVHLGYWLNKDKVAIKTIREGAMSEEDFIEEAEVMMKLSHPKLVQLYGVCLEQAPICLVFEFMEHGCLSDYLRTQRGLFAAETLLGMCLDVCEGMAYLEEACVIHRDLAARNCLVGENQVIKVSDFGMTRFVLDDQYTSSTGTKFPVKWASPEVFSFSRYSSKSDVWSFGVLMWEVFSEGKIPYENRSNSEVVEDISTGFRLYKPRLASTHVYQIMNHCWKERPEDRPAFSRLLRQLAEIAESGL
As to the kind of experiment: ITK inhibitory activity (HTRF kinase assay, biotinylated GST-SLP76 substrate). Format: biochemical. Conditions: IC50 calculated from the 2 test compound concentrations sandwiching 50% ITK inhibitory rate. The gist of the method:
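Sf9-expressed hITK (50 ng/mL enzyme solution) reacted 10 min at RT in MOPS pH 7.0, 10 mmol/L MgCl2, 1 mmol/L DTT with E. coli SLP76 aa95–175 substrate; substrate solution held 100 µmol/L ATP (6 µmol/L for selected compounds). HTRF 665/620 ratio, blank-corrected; IC50 interpolated between two concentrations bracketing 50% inhibition.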
Turning to `CCC(=O)N(CCOC)c1ccc2cc(-c3n[nH]c4c3CCC(C)(C)C4)[nH]c2c1` [Example 212], the IC50 is 5 nM. With `COCC(=O)N(CCO)c1ccc2cc(-c3n[nH]c4c3CCC(C)(C)C4)[nH]c2c1` [Example 213] the figure was less than 3 nM; with `CC(=O)N(CCO)c1ccc2cc(-c3n[nH]c4c3CCC(C)(C)C4)[nH]c2c1` [Example 214], less than 3 nM. Under `CN(C)CCN(C(=O)C1CCCCC1)c1ccc2cc(-c3n[nH]c4c3CCC(C)(C)C4)[nH]c2c1` [Example 215] stands less than 3 nM; under `CN(C)CCN(C(=O)C1CCOCC1)c1ccc2cc(-c3n[nH]c4c3CCC(C)(C)C4)[nH]c2c1` [Example 216], 8 nM.

In the case of `CN(C)CCN(C(=O)C1CCOC1)c1ccc2cc(-c3n[nH]c4c3CCC(C)(C)C4)[nH]c2c1` (stereo not drawn) [Example 217], the IC50 is less than 3 nM. Under `CN(C)CCCN(C(=O)C1CCCCC1)c1ccc2cc(-c3n[nH]c4c3CCC(C)(C)C4)[nH]c2c1` [Example 218] stands less than 3 nM; under `CN(C)CCN(C(=O)CC1CCCCC1)c1ccc2cc(-c3n[nH]c4c3CCC(C)(C)C4)[nH]c2c1` [Example 219], 4 nM. Under `CN(C)CCN(C(=O)C1CCCO1)c1ccc2cc(-c3n[nH]c4c3CCC(C)(C)C4)[nH]c2c1` (stereo not drawn) [Example 220] stands less than 3 nM. With `CN(C)CCN(C(=O)CC1CCOCC1)c1ccc2cc(-c3n[nH]c4c3CCC(C)(C)C4)[nH]c2c1` [Example 221] the figure was 3 nM; with `COCC(=O)N(CCN(C)C)c1ccc2cc(-c3n[nH]c4c3CCC(C)(C)C4)[nH]c2c1` [Example 222], less than 3 nM. As to `CN(C)CCCN(C(=O)C1CCOCC1)c1ccc2cc(-c3n[nH]c4c3CCC(C)(C)C4)[nH]c2c1` [Example 223], the IC50 is 5 nM.

As for `CN(C)CCCN(C(=O)C1CCCO1)c1ccc2cc(-c3n[nH]c4c3CCC(C)(C)C4)[nH]c2c1` (stereo not drawn) [Example 224], the IC50 was 1 nM. For `CN(C)CCCN(C(=O)C1CCOC1)c1ccc2cc(-c3n[nH]c4c3CCC(C)(C)C4)[nH]c2c1` (stereo not drawn) [Example 225], the IC50 is 2 nM. On to `CN(C)CCCN(C(=O)CC1CCOCC1)c1ccc2cc(-c3n[nH]c4c3CCC(C)(C)C4)[nH]c2c1` [Example 226], for which the IC50 is 2 nM.

Consider `CC1(C)CCc2c(-c3cc4ccc(N5CCC(O)C5=O)cc4[nH]3)n[nH]c2C1` (stereo not drawn) [Example 227], for which the IC50 is 34 nM. For `CC1(C)CCc2c(-c3cc4ccc(N5CCC(CO)C5=O)cc4[nH]3)n[nH]c2C1` (stereo not drawn) [Example 228], the IC50 was 40 nM. With `CC1CCN(c2ccc3cc(-c4n[nH]c5c4CCC(C)(C)C5)[nH]c3c2)C1=O` (stereo not drawn) [Example 229] the figure was 38 nM; with `CC1(C)CCc2c(-c3cc4ccc(N5CCC(C)(CO)C5=O)cc4[nH]3)n[nH]c2C1` (stereo not drawn) [Example 230], 25 nM; with `CC1(C)CCc2c(-c3cc4ccc(N(CCO)C(=O)C5CCCC5)cc4[nH]3)n[nH]c2C1` [Example 231], 2 nM. As to `CC1(C)CCc2c(-c3cc4ccc(N(CCO)C(=O)CC5CCCOC5)cc4[nH]3)n[nH]c2C1` (stereo not drawn) [Example 232], the IC50 is 3 nM. Under `CO[C@H]1CC[C@H](C(=O)N(CCO)c2ccc3cc(-c4n[nH]c5c4CCC(C)(C)C5)[nH]c3c2)CC1` [Example 233] stands 10 nM. In the case of `CC1(C)CCc2c(-c3cc4ccc(N(CCO)C(=O)[C@H]5CC[C@H](O)CC5)cc4[nH]3)n[nH]c2C1` [Example 234], the IC50 was 16 nM.

Take `CC1(C)CCc2c(-c3cc4ccc(N(CCO)C(=O)CC5CCCCC5)cc4[nH]3)n[nH]c2C1` [Example 235]: the IC50 is 8 nM.

`CC1(C)CCc2c(-c3cc4ccc(N(CCO)C(=O)C5CCOCC5)cc4[nH]3)n[nH]c2C1` [Example 236]: the IC50 is 6 nM. Under `CC1(C)CCc2c(-c3cc4ccc(N(CCO)C(=O)C5CCCO5)cc4[nH]3)n[nH]c2C1` (stereo not drawn) [Example 237] stands 2 nM.

As to `CC1(C)CCc2c(-c3cc4ccc(N(CCO)C(=O)C5CCOC5)cc4[nH]3)n[nH]c2C1` (stereo not drawn) [Example 238], the IC50 is 2 nM. With `CC1(C)CCc2c(-c3cc4ccc(N(CCO)C(=O)C5CCCCC5)cc4[nH]3)n[nH]c2C1` [Example 239] the figure was 5 nM; with `CO[C@H]1CC[C@@H](C(=O)N(CCO)c2ccc3cc(-c4n[nH]c5c4CCC(C)(C)C5)[nH]c3c2)CC1` [Example 240], 3 nM. With `CC(C(=O)N(CCO)c1ccc2cc(-c3n[nH]c4c3CCC(C)(C)C4)[nH]c2c1)C1CCCCC1` (stereo not drawn) [Example 241] the figure was 23 nM; with `CC(C(=O)N(CCO)c1ccc2cc(-c3n[nH]c4c3CCC(C)(C)C4)[nH]c2c1)C1CCOCC1` (stereo not drawn) [Example 242], 3 nM; with `COC1(C)CCN(c2ccc3cc(-c4n[nH]c5c4CCC(C)(C)C5)[nH]c3c2)C1=O` (stereo not drawn) [Example 243], 24 nM. With `CC1(C)CCc2c(-c3cc4ccc(N5CCC(C)(O)C5=O)cc4[nH]3)n[nH]c2C1` (stereo not drawn) [Example 244] the figure was 23 nM; with `CC1(C)CCc2c(-c3cc4ccc(N(CCO)C(=O)C(O)C5CCCOC5)cc4[nH]3)n[nH]c2C1` (stereo not drawn) [Example 245], 10 nM; with `CC1(C)CCc2c(-c3cc4ccc(N(CCO)C(=O)C(O)C5CCCOC5)cc4[nH]3)n[nH]c2C1` (stereo not drawn) [Example 246], 7 nM. `CC(C)CC(=O)N(CCO)c1ccc2cc(-c3n[nH]c4c3CCC(C)(C)C4)[nH]c2c1` [Example 247]: the IC50 is 4 nM. Take `CC1(C)CCc2c(-c3cc4ccc(N(CCO)C(=O)[C@H]5CC[C@@H](O)CC5)cc4[nH]3)n[nH]c2C1` [Example 248]: the IC50 is 2 nM. Consider `CC1(C)CCc2c(-c3cc4ccc(N(CCO)C(=O)CC5CCOCC5)cc4[nH]3)n[nH]c2C1` [Example 249], for which the IC50 was 7 nM. Under `CC1(C)CCc2c(-c3cc4ccc(N5CCC(C6CCCCC6)C5=O)cc4[nH]3)n[nH]c2C1` (stereo not drawn) [Example 250] stands 139 nM; under `CC1(C)CCc2c(-c3cc4ccc(N5CCC(CO)(C6CCCCC6)C5=O)cc4[nH]3)n[nH]c2C1` (stereo not drawn) [Example 251], 34 nM; under `C[C@H](C(=O)N(CCO)c1ccc2cc(-c3n[nH]c4c3CCC(C)(C)C4)[nH]c2c1)N1CCOCC1` [Example 252], 11 nM.

With `CC1(C)CCc2c(-c3cc4ccc(N(CCO)C(=O)CN5CCCCC5=O)cc4[nH]3)n[nH]c2C1` [Example 253], the IC50 was 2 nM. As for `CC1(C)CCc2c(-c3cc4ccc(N(CCO)C(=O)CN5CCOCC5)cc4[nH]3)n[nH]c2C1` [Example 254], the IC50 was 5 nM.

As to `C[C@@H](C(=O)N(CCO)c1ccc2cc(-c3n[nH]c4c3CCC(C)(C)C4)[nH]c2c1)N1CCOCC1` [Example 255], the IC50 was 3 nM. Under `CC1(C)CCc2c(-c3cc4ccc(N(CCO)C(=O)CN5CCCCCC5=O)cc4[nH]3)n[nH]c2C1` [Example 256] stands 1 nM; under `CC1CCN(CC(=O)N(CCO)c2ccc3cc(-c4n[nH]c5c4CCC(C)(C)C5)[nH]c3c2)C1=O` (stereo not drawn) [Example 257], 1 nM. Under `CCN(c1ccc2cc(-c3n[nH]c4c3CCC(C)(C)C4)[nH]c2c1)C(=O)[C@H]1CC[C@@H](O)CC1` [Example 258] stands 4 nM.

With `COCCN(c1ccc2cc(-c3n[nH]c4c3CCC(C)(C)C4)[nH]c2c1)C(=O)[C@H]1CC[C@@H](O)CC1` [Example 259], the IC50 is 3 nM. With `CCN(C(=O)CN1CCOC(C)C1=O)c1ccc2cc(-c3n[nH]c4c3CCC(C)(C)C4)[nH]c2c1` (stereo not drawn) [Example 260] the figure was less than 1 nM; with `COCCN(C(=O)CN1C(=O)COC[C@H]1C)c1ccc2cc(-c3n[nH]c4c3CCC(C)(C)C4)[nH]c2c1` [Example 262], 3 nM. With `CCN(C(=O)C(C)C1CCOCC1)c1ccc2cc(-c3n[nH]c4c3CCC(C)(C)C4)[nH]c2c1` (stereo not drawn) [Example 263] the figure was 7 nM; with `COCCN(C(=O)C(C)C1CCOCC1)c1ccc2cc(-c3n[nH]c4c3CCC(C)(C)C4)[nH]c2c1` (stereo not drawn) [Example 264], 10 nM; with `COCCN(C(=O)CN1CCOC(C)C1=O)c1ccc2cc(-c3n[nH]c4c3CCC(C)(C)C4)[nH]c2c1` (stereo not drawn) [Example 265], 2 nM.

On to `CCN(c1ccc2cc(-c3n[nH]c4c3CCC(C)(C)C4)[nH]c2c1)C(=O)[C@H]1CC[C@@H](OC)CC1` [Example 266], for which the IC50 is 7 nM. Under `COCCN(c1ccc2cc(-c3n[nH]c4c3CCC(C)(C)C4)[nH]c2c1)C(=O)[C@H]1CC[C@@H](OC)CC1` [Example 267] stands 5 nM; under `CCN(C(=O)CC1CCOCC1)c1ccc2cc(-c3n[nH]c4c3CCC(C)(C)C4)[nH]c2c1` [Example 268], 5 nM; under `COCCN(C(=O)CC1CCOCC1)c1ccc2cc(-c3n[nH]c4c3CCC(C)(C)C4)[nH]c2c1` [Example 269], 6 nM.
